Source: ChEMBL document CHEMBL1275554, “Caspofungin-resistant Candida tropicalis strains causing breakthrough fungemia in patients at high risk for hematologic malignancies” (Antimicrob Agents Chemother, 2008)
In brackets after ≈: the same amount, converted by molar mass. *1 amine or outer side, *2 acyl side, *3 side chain or, on linkers, in order; H or OH if unused. Where a SMILES comes first, the peptide text is derived from it. Bridges are numbered along the chain shown (N, C = ends). [ ]: non-standard residue; d: D form. The star is where a group is joined. hTyr(3S-OH,4S-OH,3'-OSO3H) = N[C@H](C(=O)O)[C@H](O)[C@@H](O)c1ccc(O)c(OS(=O)(=O)O)c1; pTerphenylCO(4''-OnC5H11) = CCCCCOc1ccc(-c2ccc(-c3ccc(C(=O)*)cc3)cc2)cc1; Orn(4R-OH,5R-OH) = O=C([C@H](C[C@@H](O)[C@@H](O)N[*:3])N[*:1])[*:2]; hTyr(3S-OH,4S-OH) = N[C@H](C(=O)O)[C@H](O)[C@@H](O)c1ccc(O)cc1; Pro(3S-OH,4S-Me) = C[C@H]1CN[C@H](C(=O)O)[C@H]1O; X1 = CCCCCOc1ccc(-c2cc(-c3ccc(C(=O)*)cc3)no2)cc1; Gln(3R-OH) = NC(=O)C[C@@H](O)[C@H](N)C(=O)O; Hyp = O=C(O)[C@@H]1C[C@@H](O)CN1

Legend:
[1] = Inhibition of Candida tropicalis ATCC 750 glucan synthase subunit FKS1p at monophasic kinetics
[2] = Inhibition of Candida tropicalis T7 blood stream isolate glucan synthase subunit FKS1p at monophasic kinetics
[3] = target: T1, 1,3-beta-D-glucan synthase subunit 1 (Candida tropicalis, UniProt B6S6L8, S80P); assay: Inhibition of Candida tropicalis T19 blood stream isolate glucan synthase subunit FKS1p with FLTLS/PLRDP mutant at biphasic kinetics
T1 sequence (B6S6L8 entry or part of it S80P): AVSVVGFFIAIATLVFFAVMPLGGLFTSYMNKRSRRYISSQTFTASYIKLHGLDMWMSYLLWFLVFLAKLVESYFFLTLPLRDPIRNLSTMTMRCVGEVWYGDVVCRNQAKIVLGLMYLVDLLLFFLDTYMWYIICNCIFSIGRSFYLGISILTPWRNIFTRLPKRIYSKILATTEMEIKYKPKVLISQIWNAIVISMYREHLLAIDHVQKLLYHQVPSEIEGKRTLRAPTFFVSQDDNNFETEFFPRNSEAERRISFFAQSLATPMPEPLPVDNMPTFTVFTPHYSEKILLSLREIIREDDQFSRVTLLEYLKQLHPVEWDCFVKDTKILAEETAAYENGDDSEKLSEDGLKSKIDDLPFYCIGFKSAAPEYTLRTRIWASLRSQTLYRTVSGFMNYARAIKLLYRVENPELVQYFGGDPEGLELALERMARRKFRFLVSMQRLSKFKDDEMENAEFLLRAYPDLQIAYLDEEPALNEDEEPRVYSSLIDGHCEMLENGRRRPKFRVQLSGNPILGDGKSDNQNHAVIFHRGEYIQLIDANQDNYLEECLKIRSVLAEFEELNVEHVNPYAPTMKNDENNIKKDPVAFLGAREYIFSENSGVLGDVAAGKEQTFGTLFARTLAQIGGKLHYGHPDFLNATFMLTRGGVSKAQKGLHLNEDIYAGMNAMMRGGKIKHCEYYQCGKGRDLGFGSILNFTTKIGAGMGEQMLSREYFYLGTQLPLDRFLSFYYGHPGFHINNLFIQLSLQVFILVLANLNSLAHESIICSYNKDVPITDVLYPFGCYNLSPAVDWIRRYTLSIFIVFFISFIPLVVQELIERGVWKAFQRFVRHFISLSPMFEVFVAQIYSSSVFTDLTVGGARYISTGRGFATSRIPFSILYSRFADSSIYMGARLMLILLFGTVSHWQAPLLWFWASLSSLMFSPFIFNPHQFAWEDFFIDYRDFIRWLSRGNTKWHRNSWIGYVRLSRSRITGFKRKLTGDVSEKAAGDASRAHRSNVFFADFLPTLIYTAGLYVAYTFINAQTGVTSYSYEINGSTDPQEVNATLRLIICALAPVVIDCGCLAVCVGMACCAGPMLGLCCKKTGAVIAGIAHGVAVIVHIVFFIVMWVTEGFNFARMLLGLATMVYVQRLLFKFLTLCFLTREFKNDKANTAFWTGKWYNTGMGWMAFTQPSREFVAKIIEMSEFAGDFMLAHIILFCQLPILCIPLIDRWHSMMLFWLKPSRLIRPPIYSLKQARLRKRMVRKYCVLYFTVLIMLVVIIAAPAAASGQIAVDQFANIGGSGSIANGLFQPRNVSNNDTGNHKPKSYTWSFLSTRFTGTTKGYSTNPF

[4] = target: T1, 1,3-beta-D-glucan synthase subunit 1; assay: Inhibition of Candida tropicalis T19 blood stream isolate glucan synthase subunit FKS1p with FLTLS/PLRDP mutant at monophasic kinetics
[5] = target: T1, 1,3-beta-D-glucan synthase subunit 1; assay: Inhibition of Candida tropicalis T3 blood stream isolate glucan synthase subunit FKS1p with FLTLS/PLRDP mutant at monophasic kinetics
Candida albicans [6] = assay: Antifungal activity against Candida albicans 205 harboring Fks1p FLTLPLRDP mutant protein; type: functional
[7] = Inhibition of Candida albicans 205 glucan synthase subunit FKS1p FLTLPLRDP mutant at monophasic kinetics
[8] = target: T1, 1,3-beta-D-glucan synthase subunit 1; assay: Inhibition of Candida tropicalis T3 blood stream isolate glucan synthase subunit FKS1p with FLTLS/PLRDP mutant at biphasic kinetics
Candida tropicalis [9] = assay: Antifungal activity against Candida tropicalis T7 blood stream isolate; type: functional
Beta-1,3-glucan synthase = target: T2, Beta-1,3-glucan synthase (Candida albicans, UniProt O13383); assay: Inhibition of Candida albicans ATCC 90028 glucan synthase at monophasic kinetics
T2 sequence (O13383 whole entry): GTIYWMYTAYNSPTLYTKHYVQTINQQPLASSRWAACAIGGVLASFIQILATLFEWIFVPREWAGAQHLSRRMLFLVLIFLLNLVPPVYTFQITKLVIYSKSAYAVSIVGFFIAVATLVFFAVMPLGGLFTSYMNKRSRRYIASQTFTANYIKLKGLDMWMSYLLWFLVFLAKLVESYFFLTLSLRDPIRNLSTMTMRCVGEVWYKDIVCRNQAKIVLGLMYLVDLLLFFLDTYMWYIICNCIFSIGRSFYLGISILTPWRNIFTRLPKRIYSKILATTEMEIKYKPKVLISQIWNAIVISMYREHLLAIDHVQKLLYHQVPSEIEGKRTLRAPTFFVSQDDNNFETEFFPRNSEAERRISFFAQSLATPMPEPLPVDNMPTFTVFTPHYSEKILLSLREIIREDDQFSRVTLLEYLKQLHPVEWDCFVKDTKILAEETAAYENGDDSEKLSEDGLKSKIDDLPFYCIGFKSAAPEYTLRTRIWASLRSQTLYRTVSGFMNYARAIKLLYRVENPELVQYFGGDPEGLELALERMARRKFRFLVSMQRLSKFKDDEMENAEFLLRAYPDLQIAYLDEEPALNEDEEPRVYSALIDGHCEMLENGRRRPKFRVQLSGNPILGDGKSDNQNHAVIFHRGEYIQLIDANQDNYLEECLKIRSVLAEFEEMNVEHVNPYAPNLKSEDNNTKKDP

[10] = target: 1,3-beta-D-glucan synthase subunit 1 (Candida tropicalis, UniProt B6S6L8, F76L); assay: Inhibition of Candida tropicalis T26 blood stream isolate glucan synthase subunit FKS1p with LLTLSLRDP mutant at monophasic kinetics
1,3-beta-D-glucan synthase subunit 1 (Candida tropicalis, UniProt B6S6L8, F76L), sequence (B6S6L8 entry or part of it F76L): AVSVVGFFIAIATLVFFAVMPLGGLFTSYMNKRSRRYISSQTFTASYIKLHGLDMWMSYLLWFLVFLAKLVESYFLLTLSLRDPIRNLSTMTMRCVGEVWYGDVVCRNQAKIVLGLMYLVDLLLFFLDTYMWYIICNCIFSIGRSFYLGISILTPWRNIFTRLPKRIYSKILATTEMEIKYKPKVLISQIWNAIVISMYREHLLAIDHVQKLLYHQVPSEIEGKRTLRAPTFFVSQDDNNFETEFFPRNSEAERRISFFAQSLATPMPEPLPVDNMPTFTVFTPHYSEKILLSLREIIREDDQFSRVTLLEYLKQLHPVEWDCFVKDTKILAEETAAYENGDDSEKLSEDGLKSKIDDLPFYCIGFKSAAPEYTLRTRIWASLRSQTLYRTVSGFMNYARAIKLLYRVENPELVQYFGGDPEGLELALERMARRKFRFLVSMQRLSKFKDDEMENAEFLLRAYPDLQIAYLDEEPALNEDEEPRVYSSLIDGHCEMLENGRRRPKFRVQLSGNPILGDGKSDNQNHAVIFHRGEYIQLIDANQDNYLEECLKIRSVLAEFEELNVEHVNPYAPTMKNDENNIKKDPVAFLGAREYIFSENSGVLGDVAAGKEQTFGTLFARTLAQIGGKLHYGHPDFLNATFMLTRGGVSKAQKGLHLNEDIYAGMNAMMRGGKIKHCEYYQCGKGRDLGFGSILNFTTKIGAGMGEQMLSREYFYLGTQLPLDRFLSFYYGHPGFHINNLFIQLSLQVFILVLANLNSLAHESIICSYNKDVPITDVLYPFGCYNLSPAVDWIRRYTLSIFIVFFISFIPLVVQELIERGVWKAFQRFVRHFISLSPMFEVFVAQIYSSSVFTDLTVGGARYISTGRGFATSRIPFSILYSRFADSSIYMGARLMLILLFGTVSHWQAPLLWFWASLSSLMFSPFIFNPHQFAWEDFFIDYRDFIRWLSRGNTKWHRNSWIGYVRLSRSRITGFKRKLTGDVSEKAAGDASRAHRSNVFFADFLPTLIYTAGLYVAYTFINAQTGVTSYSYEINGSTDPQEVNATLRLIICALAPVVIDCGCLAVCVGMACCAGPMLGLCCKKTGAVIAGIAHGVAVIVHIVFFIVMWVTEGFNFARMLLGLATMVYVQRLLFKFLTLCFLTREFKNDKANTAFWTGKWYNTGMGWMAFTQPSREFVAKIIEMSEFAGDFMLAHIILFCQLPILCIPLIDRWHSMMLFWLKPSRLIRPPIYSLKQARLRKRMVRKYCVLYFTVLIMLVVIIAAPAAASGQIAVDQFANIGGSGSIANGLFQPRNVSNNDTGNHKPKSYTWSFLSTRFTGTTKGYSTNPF

Candida tropicalis [11] = assay: Antifungal activity against Candida tropicalis T26 blood stream isolate harboring Fks1p LLTLSLRDP mutant protein; type: functional
Candida tropicalis [12] = assay: Antifungal activity against Candida tropicalis T19 blood stream isolate harboring Fks1p FLTLS/PLRDP mutant protein; type: functional
Candida albicans [13] = assay: Antifungal activity against Candida albicans ATCC 90028; type: functional
Candida tropicalis [14] = assay: Antifungal activity against Candida tropicalis T3 blood stream isolate harboring Fks1p FLTLS/PLRDP mutant protein; type: functional
Candida tropicalis [15] = assay: Antifungal activity against Candida tropicalis ATCC 750; type: functional

SMILES | IC50 [1] [µg/mL] | IC50 [2] [µg/mL] | IC50 [3] [nM] | IC50 [4] [nM] | IC50 [5] [nM] | MIC (Candida albicans [6]) [µg/mL] | IC50 [7] [µg/mL] | IC50 [8] [nM] | MIC (Candida tropicalis [9]) [µg/mL] | IC50 (Beta-1,3-glucan synthase) [nM] | IC50 [10] [nM] | MIC (Candida tropicalis [11]) [µg/mL] | MIC (Candida tropicalis [12]) [µg/mL] | MIC (Candida albicans [13]) [µg/mL] | MIC (Candida tropicalis [14]) [µg/mL] | MIC (Candida tropicalis [15]) [µg/mL]
CC[C@H](C)C[C@H](C)CCCCCCCCC(=O)N[C@H]1C[C@@H](O)[C@@H](NCCN)NC(=O)[C@@H]2[C@@H](O)CCN2C(=O)[C@H]([C@H](O)CCN)NC(=O)[C@H]([C@H](O)[C@@H](O)c2ccc(O)cc2)NC(=O)[C@@H]2C[C@@H](O)CN2C(=O)[C@H]([C@@H](C)O)NC1=O [CASPOFUNGIN] | 0.002331 (≈ 0.00213 µM) | 0.007652 (≈ 0.007 µM) | 241 | 0.271 | 0.28 | 8 (≈ 7.32 µM) | 0.2454 (≈ 0.224 µM) | 338 | 0.5 (≈ 0.457 µM) | 0.457 | 70.3 | 1 (≈ 0.915 µM) | 4 (≈ 3.66 µM) | 0.12 (≈ 0.11 µM) | 4 (≈ 3.66 µM) | 0.25 (≈ 0.229 µM)
CCCCCOc1ccc(-c2ccc(-c3ccc(C(=O)N[C@H]4C[C@@H](O)[C@@H](O)NC(=O)[C@@H]5[C@@H](O)[C@@H](C)CN5C(=O)[C@H]([C@@H](C)O)NC(=O)[C@H]([C@H](O)[C@@H](O)c5ccc(O)cc5)NC(=O)[C@@H]5C[C@@H](O)CN5C(=O)[C@H]([C@@H](C)O)NC4=O)cc3)cc2)cc1 [ANIDULAFUNGIN] ({pTerphenylCO(4''-OnC5H11)}-[Orn(4R-OH,5R-OH)]T[Hyp][hTyr(3S-OH,4S-OH)]T[Pro(3S-OH,4S-Me)]; lactam 1-C) | 0.004661 (≈ 0.00409 µM) | 0.002689 (≈ 0.00236 µM) | 357 | 0.503 | 0.281 | 2 (≈ 1.75 µM) | 0.989 (≈ 0.867 µM) | 205 | 0.12 (≈ 0.105 µM) | 1.6 | 27.7 | 0.5 (≈ 0.438 µM) | 1 (≈ 0.877 µM) | 0.03 (≈ 0.0263 µM) | 2 (≈ 1.75 µM) | 0.06 (≈ 0.0526 µM)
C[C@@H](c1ncncc1F)[C@](O)(Cn1cncn1)c1ccc(F)cc1F [VORICONAZOLE] |  |  |  |  |  |  |  |  | 0.06 (≈ 0.172 µM) |  |  | 0.03 (≈ 0.0859 µM) | 2 (≈ 5.73 µM) |  | 1 (≈ 2.86 µM) | 
CC[C@@H]([C@H](C)O)n1ncn(-c2ccc(N3CCN(c4ccc(OC[C@@H]5CO[C@@](Cn6cncn6)(c6ccc(F)cc6F)C5)cc4)CC3)cc2)c1=O [POSACONAZOLE] |  |  |  |  |  |  |  |  | 0.25 (≈ 0.357 µM) |  |  | 0.06 (≈ 0.0856 µM) | 1 (≈ 1.43 µM) |  | 0.25 (≈ 0.357 µM) | 
OC(Cn1cncn1)(Cn1cncn1)c1ccc(F)cc1F [FLUCONAZOLE] |  |  |  |  |  |  |  |  | 0.25 (≈ 0.816 µM) |  |  | 0.5 (≈ 1.63 µM) | 32 (≈ 104 µM) |  | 8 (≈ 26.1 µM) | 
CCCCCOc1ccc(-c2cc(-c3ccc(C(=O)N[C@H]4C[C@@H](O)[C@@H](O)NC(=O)[C@@H]5[C@@H](O)[C@@H](C)CN5C(=O)[C@H]([C@H](O)CC(N)=O)NC(=O)[C@H]([C@H](O)[C@@H](O)c5ccc(O)c(OS(=O)(=O)O)c5)NC(=O)[C@@H]5C[C@@H](O)CN5C(=O)[C@H]([C@@H](C)O)NC4=O)cc3)no2)cc1 [MICAFUNGIN] (X1-[Orn(4R-OH,5R-OH)]T[Hyp][hTyr(3S-OH,4S-OH,3'-OSO3H)][Gln(3R-OH)][Pro(3S-OH,4S-Me)]; lactam 1-C) | 0.007545 (≈ 0.00594 µM) | 0.006168 (≈ 0.00486 µM) | 223 |  | 0.117 | 4 (≈ 3.15 µM) | 1.085 (≈ 0.854 µM) | 228 | 0.06 (≈ 0.0472 µM) | 14.8 | 59.6 | 0.5 (≈ 0.394 µM) | 2 (≈ 1.57 µM) | 0.03 (≈ 0.0236 µM) | 2 (≈ 1.57 µM) | 0.06 (≈ 0.0472 µM)
CCC(C)n1ncn(-c2ccc(N3CCN(c4ccc(OCC5COC(Cn6cncn6)(c6ccc(Cl)cc6Cl)O5)cc4)CC3)cc2)c1=O (stereo not drawn) [ITRACONAZOLE] |  |  |  |  |  |  |  |  | 0.25 (≈ 0.354 µM) |  |  | 0.125 (≈ 0.177 µM) | 1 (≈ 1.42 µM) |  | 0.5 (≈ 0.709 µM) | 
